# In publication PMC4383465 (European journal of pharmacology, 2014):
# Several values for one entry are separate records, joined by “and”; a condition that tells them apart may be missing. Identical values can stand only once. Marks after values point to notes of the source that are not given here.
# What was measured:
# [1] = biological target: cannabinoid type-1 receptors (Mus musculus, UniProt P47746); conditions: read-out: [3H]CP binding Ki, ref Brents et al., 2011; cited from earlier work
# [2] = biological target: cannabinoid type-1 receptors endogenously expressed in Neuro2A cells (Mus musculus, UniProt P47746); test: Intracellular cAMP levels; type: cell-based; conditions: for CB1R intrinsic activity: modulation of AC-activity compared to full agonist CP-55,940; for effect on intracellular cAMP compared to basal levels: 10 μM
# Sequence of cannabinoid type-1 receptors endogenously expressed in Neuro2A cells (P47746 whole entry): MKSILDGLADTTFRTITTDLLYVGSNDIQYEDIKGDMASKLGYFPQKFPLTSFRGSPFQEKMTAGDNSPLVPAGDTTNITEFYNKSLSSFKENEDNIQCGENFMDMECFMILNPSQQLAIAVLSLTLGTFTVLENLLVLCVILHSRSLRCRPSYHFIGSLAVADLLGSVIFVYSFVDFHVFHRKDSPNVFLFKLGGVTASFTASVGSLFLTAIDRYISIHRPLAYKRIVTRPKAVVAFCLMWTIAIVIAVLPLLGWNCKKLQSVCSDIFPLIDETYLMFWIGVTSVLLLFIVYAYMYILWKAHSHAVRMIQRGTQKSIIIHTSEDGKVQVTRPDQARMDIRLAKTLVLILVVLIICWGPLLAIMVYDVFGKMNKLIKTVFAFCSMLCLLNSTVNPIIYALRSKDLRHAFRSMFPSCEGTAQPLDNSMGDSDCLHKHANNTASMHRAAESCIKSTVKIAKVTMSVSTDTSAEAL
# [3] = biological target: human cannabinoid type-2 receptors (Homo sapiens, UniProt P34972); type: binding; conditions: for Selectivity CB1/CB2: CB1-Ki value divided CB2-Ki value
# Sequence of human cannabinoid type-2 receptors (P34972 whole entry): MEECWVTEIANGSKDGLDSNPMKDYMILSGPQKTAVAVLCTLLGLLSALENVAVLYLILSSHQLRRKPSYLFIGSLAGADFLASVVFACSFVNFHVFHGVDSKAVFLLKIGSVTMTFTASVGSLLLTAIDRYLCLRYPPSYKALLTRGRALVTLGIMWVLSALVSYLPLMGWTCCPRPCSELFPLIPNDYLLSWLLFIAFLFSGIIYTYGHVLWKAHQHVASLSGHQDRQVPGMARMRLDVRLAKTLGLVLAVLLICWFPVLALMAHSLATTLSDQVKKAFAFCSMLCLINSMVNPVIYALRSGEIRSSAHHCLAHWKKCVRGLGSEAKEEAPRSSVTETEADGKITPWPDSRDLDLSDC
# [4] = biological target: human cannabinoid type-2 receptors stably expressed in CHO-hCB2 cells (Homo sapiens, UniProt P34972); test: Intracellular cAMP levels; type: cell-based; conditions: for CB2R intrinsic activity: modulation of AC-activity compared to full agonist CP-55,940
# Sequence of human cannabinoid type-2 receptors stably expressed in CHO-hCB2 cells (P34972 whole entry): as above
# [5] = up to a dose of 120 mg/kg; ref Geng et al., 2009; cited from earlier work
# [6] = after oral delivery, plasma; ref Al-Ghananeem et al., 2007; cited from earlier work
# Sequence of cannabinoid type-1 receptors (P47746 whole entry): as the sequence (P47746 whole entry) above
SMILES,Ki [1],"reduction in intracellular cAMP levels when administered alone ([2]; EC90 concentration (10 nM), Neuro2A cells)","Adenylyl Cyclase Inhibition Imax (% Inhibition) ([2]; concentration-effect curve, intact Neuro2A cells, 10 μM forskolin)",CB1R intrinsic activity [2],"decrease in intracellular cAMP levels ([2]; screen, 1 μM, Neuro2A cells)",Selectivity CB1/CB2 [3],"effect on intracellular cAMP compared to basal levels ([2]; screen, Neuro2A cells)",CB2R intrinsic activity [4],"increase in cAMP concentrations above basal levels ([4]; screen, 10 μM, CHO-hCB2 cells)",selectivity for binding to cannabinoid type-2 relative to type-1 receptors [3],acute toxicity [5],AUC [6],average Cmax [6],intrinsic activity from full concentration-effect curves ([4]; CHO-hCB2 cells),"Adenylyl Cyclase Inhibition Imax (% Inhibition) ([4]; concentration-effect curve, intact CHO-hCB2 cells, negative = increase in cAMP)"
"CCCCCCC(C)(C)c1ccc([C@@H]2C[C@H](O)CC[C@H]2CCCO)c(O)c1 [CP-55,940, reference compound]",0.26 ± 0.1 nM,45.7 +/− 3.7%,42.4±3.8 % Inhibition and 42.4 ± 3.8^a % Inhibition,Agonist,64.1 +/− 1.6%,–,–,–,–,–,–,–,–,–,–
COC(=O)c1ccc(Cn2cc(/C=C3/C(=O)C4CCN3CC4)c3ccccc32)cc1 [Compound 4],–,–,–,Inverse Agonist,–,1.62,significant elevations in intracellular cAMP above basal levels,Inverse Agonist,278 +/− 38.6%,–,–,–,–,–,–
"OC1/C(=C/c2cn(Cc3ccccc3)c3ccccc23)N2CCC1CC2 (centres unmarked) [Compound 8, (Z)-2-((1-benzyl-1H-indol-3-yl)methylene)quinuclidin-3-ol]",–,–,–,Neutral Antagonist,–,–,did not significantly alter cAMP concentrations,Agonist,–,10 fold,did not produce any acute toxicity,3561 ± 670 ng·kg·min/mL/mg,"1,710 ± 503 ng/ml",–,–
O=C1/C(=C/c2cn(Cc3ccc(Cl)cc3)c3ccccc23)N2CCC1CC2 [Compound 1],–,–,–,Neutral Antagonist,–,1.56,did not significantly alter cAMP concentrations,Agonist,–,–,–,–,–,full agonists,"63.0 ± 5.2^a,b % Inhibition"
